Where two headings read alike, the source gives them in different places. Values belong to the compound of their own block, whether it stands above or below them. Where a SMILES comes first, the peptide text is derived from it. [ ]: non-standard residue; d: D form. The star is where a group is joined. DOTA = O=C(O)CN1CCN(CC(=O)O)CCN(CC(=O)*)CCN(CC(=O)O)CC1
Experiment: Biodistribution experiments in normal mice after i.v. injection
Assay type: in vivo
Details: for tissue uptake dose at 10 min / tissue uptake dose at 1 h / tissue uptake dose at 3 h: male, ddY, total radioactivity
Experimental: Experiments with animals were conducted in strict accordance with the Guidelines for the Care and Use of Laboratory Animals of Kanazawa University. The animal experimental protocols used were approved by the Committee on Animal Experimentation of Kanazawa University (Permit Number: AP-132633). Biodistribution experiments were performed after intravenous administration of each diluted tracer solution (37–740 kBq/100 μL) to 6-week-old male ddY mice (27–32 g, Japan SLC, Inc., Hamamatsu, Japan). Four or five mice at each time point after the administration of each compound were sacrificed by decapitation at 10, 60, and 180 min post-injection. Tissues of interest were taken and weighed. Complete left femurs were isolated as representative bone samples, radioactivity was determined using gamma counters (AccuFLEX γ ARC-8001 in the case of ^18F, Hitachi, Ltd.), and background counts and physical decay were corrected during counting.

[1] = mouse, in vivo, iv, Biodistribution of radioactivity, Blood
[2] = mouse, in vivo, iv, Biodistribution of radioactivity, Bone (Femur)
[3] = mouse, in vivo, iv, Biodistribution of radioactivity, Brain
[4] = mouse, in vivo, iv, Biodistribution of radioactivity, Heart
[5] = mouse, in vivo, iv, Biodistribution of radioactivity, Kidney
[6] = mouse, in vivo, iv, Biodistribution of radioactivity, Large-intestine
[7] = mouse, in vivo, iv, Biodistribution of radioactivity, Liver
[8] = mouse, in vivo, iv, Biodistribution of radioactivity, Lung
[9] = mouse, in vivo, iv, Biodistribution of radioactivity, Muscle
[10] = mouse, in vivo, iv, Biodistribution of radioactivity, Pancreas
[11] = mouse, in vivo, iv, Biodistribution of radioactivity, Small-intestine
[12] = mouse, in vivo, iv, Biodistribution of radioactivity, Spleen
[13] = mouse, in vivo, iv, Biodistribution of radioactivity, Stomach

SMILES: O=C(O)C[C@@H](NC(=O)[C@@H](CC(=O)O)NC(=O)[C@@H](CC(=O)O)NC(=O)[C@@H](CC(=O)O)NC(=O)[C@@H](CC(=O)O)NC(=O)[C@@H](CC(=O)O)NC(=O)[C@@H](CC(=O)O)NC(=O)[C@@H](CC(=O)O)NC(=O)[C@@H](CC(=O)O)NC(=O)[C@@H](CC(=O)O)NC(=O)[C@@H](CC(=O)O)NC(=O)CN1CCN(CC(=O)O)CCN(CC(=O)O)CCN(CC(=O)O)CC1)C(=O)O [^67Ga-DOTA-(D-Asp)11, metal not drawn] ({DOTA}-[dD][dD][dD][dD][dD][dD][dD][dD][dD][dD][dD]-OH)
tissue uptake dose at 10 min (mouse, in vivo, iv, mice, i.v., 10 min after injection, mean (SD), footnote b, read-out: Biodistribution of radioactivity, Stomach): 0.18 %ID
tissue uptake dose at 10 min (mouse, in vivo, iv, mice, i.v., 10 min after injection, mean (SD), read-out: Biodistribution of radioactivity, Blood): 1.71 %ID
tissue uptake dose at 10 min (mouse, in vivo, iv, mice, i.v., 10 min after injection, mean (SD), read-out: Biodistribution of radioactivity, Bone (Femur)): 11.9 %ID
tissue uptake dose at 10 min (mouse, in vivo, iv, mice, i.v., 10 min after injection, mean (SD), read-out: Biodistribution of radioactivity, Brain): 0.05 %ID
tissue uptake dose at 10 min (mouse, in vivo, iv, mice, i.v., 10 min after injection, mean (SD), read-out: Biodistribution of radioactivity, Heart): 0.65 %ID
tissue uptake dose at 10 min (mouse, in vivo, iv, mice, i.v., 10 min after injection, mean (SD), read-out: Biodistribution of radioactivity, Kidney): 12.8 %ID
tissue uptake dose at 10 min (mouse, in vivo, iv, mice, i.v., 10 min after injection, mean (SD), read-out: Biodistribution of radioactivity, Large-intestine): 0.28 %ID
tissue uptake dose at 10 min (mouse, in vivo, iv, mice, i.v., 10 min after injection, mean (SD), read-out: Biodistribution of radioactivity, Liver): 0.51 %ID
tissue uptake dose at 10 min (mouse, in vivo, iv, mice, i.v., 10 min after injection, mean (SD), read-out: Biodistribution of radioactivity, Lung): 1.24 %ID
tissue uptake dose at 10 min (mouse, in vivo, iv, mice, i.v., 10 min after injection, mean (SD), read-out: Biodistribution of radioactivity, Muscle): 0.58 %ID
tissue uptake dose at 10 min (mouse, in vivo, iv, mice, i.v., 10 min after injection, mean (SD), read-out: Biodistribution of radioactivity, Pancreas): 0.53 %ID
tissue uptake dose at 10 min (mouse, in vivo, iv, mice, i.v., 10 min after injection, mean (SD), read-out: Biodistribution of radioactivity, Small-intestine): 0.38 %ID
tissue uptake dose at 10 min (mouse, in vivo, iv, mice, i.v., 10 min after injection, mean (SD), read-out: Biodistribution of radioactivity, Spleen): 0.44 %ID
tissue uptake dose at 1 h (mouse, in vivo, iv, mice, i.v., 60 min after injection, mean (SD), footnote b, read-out: Biodistribution of radioactivity, Stomach): 0.04 %ID
tissue uptake dose at 1 h (mouse, in vivo, iv, mice, i.v., 60 min after injection, mean (SD), read-out: Biodistribution of radioactivity, Blood): 0.14 %ID
tissue uptake dose at 1 h (mouse, in vivo, iv, mice, i.v., 60 min after injection, mean (SD), read-out: Biodistribution of radioactivity, Bone (Femur)): 15.3 %ID
tissue uptake dose at 1 h (mouse, in vivo, iv, mice, i.v., 60 min after injection, mean (SD), read-out: Biodistribution of radioactivity, Brain): 0.01 %ID
tissue uptake dose at 1 h (mouse, in vivo, iv, mice, i.v., 60 min after injection, mean (SD), read-out: Biodistribution of radioactivity, Heart): 0.04 %ID
tissue uptake dose at 1 h (mouse, in vivo, iv, mice, i.v., 60 min after injection, mean (SD), read-out: Biodistribution of radioactivity, Kidney): 2.92 %ID
tissue uptake dose at 1 h (mouse, in vivo, iv, mice, i.v., 60 min after injection, mean (SD), read-out: Biodistribution of radioactivity, Large-intestine): 0.03 %ID
tissue uptake dose at 1 h (mouse, in vivo, iv, mice, i.v., 60 min after injection, mean (SD), read-out: Biodistribution of radioactivity, Liver): 0.2 %ID
tissue uptake dose at 1 h (mouse, in vivo, iv, mice, i.v., 60 min after injection, mean (SD), read-out: Biodistribution of radioactivity, Lung): 0.08 %ID
tissue uptake dose at 1 h (mouse, in vivo, iv, mice, i.v., 60 min after injection, mean (SD), read-out: Biodistribution of radioactivity, Muscle): 0.18 %ID
tissue uptake dose at 1 h (mouse, in vivo, iv, mice, i.v., 60 min after injection, mean (SD), read-out: Biodistribution of radioactivity, Pancreas): 0.09 %ID
tissue uptake dose at 1 h (mouse, in vivo, iv, mice, i.v., 60 min after injection, mean (SD), read-out: Biodistribution of radioactivity, Small-intestine): 0.07 %ID
tissue uptake dose at 1 h (mouse, in vivo, iv, mice, i.v., 60 min after injection, mean (SD), read-out: Biodistribution of radioactivity, Spleen): 0.13 %ID
tissue uptake dose at 3 h (mouse, in vivo, iv, mice, i.v., 180 min after injection, mean (SD), footnote b, read-out: Biodistribution of radioactivity, Stomach): 0.02 %ID
tissue uptake dose at 3 h (mouse, in vivo, iv, mice, i.v., 180 min after injection, mean (SD), read-out: Biodistribution of radioactivity, Blood): 0.08 %ID
tissue uptake dose at 3 h (mouse, in vivo, iv, mice, i.v., 180 min after injection, mean (SD), read-out: Biodistribution of radioactivity, Bone (Femur)): 15.4 %ID
tissue uptake dose at 3 h (mouse, in vivo, iv, mice, i.v., 180 min after injection, mean (SD), read-out: Biodistribution of radioactivity, Brain): 0.02 %ID
tissue uptake dose at 3 h (mouse, in vivo, iv, mice, i.v., 180 min after injection, mean (SD), read-out: Biodistribution of radioactivity, Heart): 0.03 %ID
tissue uptake dose at 3 h (mouse, in vivo, iv, mice, i.v., 180 min after injection, mean (SD), read-out: Biodistribution of radioactivity, Kidney): 1 %ID
tissue uptake dose at 3 h (mouse, in vivo, iv, mice, i.v., 180 min after injection, mean (SD), read-out: Biodistribution of radioactivity, Large-intestine): 0.11 %ID
tissue uptake dose at 3 h (mouse, in vivo, iv, mice, i.v., 180 min after injection, mean (SD), read-out: Biodistribution of radioactivity, Liver): 0.13 %ID
tissue uptake dose at 3 h (mouse, in vivo, iv, mice, i.v., 180 min after injection, mean (SD), read-out: Biodistribution of radioactivity, Lung): 0.05 %ID
tissue uptake dose at 3 h (mouse, in vivo, iv, mice, i.v., 180 min after injection, mean (SD), read-out: Biodistribution of radioactivity, Muscle): 0.06 %ID
tissue uptake dose at 3 h (mouse, in vivo, iv, mice, i.v., 180 min after injection, mean (SD), read-out: Biodistribution of radioactivity, Pancreas): 0.04 %ID
tissue uptake dose at 3 h (mouse, in vivo, iv, mice, i.v., 180 min after injection, mean (SD), read-out: Biodistribution of radioactivity, Small-intestine): 0.05 %ID
tissue uptake dose at 3 h (mouse, in vivo, iv, mice, i.v., 180 min after injection, mean (SD), read-out: Biodistribution of radioactivity, Spleen): 0.1 %ID
F/B ratio (Femur:blood ratio) (mice, i.v., 10 min after injection, mean (SD)): 7.01 (0.56)
F/B ratio (Femur:blood ratio) (mice, i.v., 60 min after injection, mean (SD)): 147.10 (71.25)
F/B ratio (Femur:blood ratio) (mice, i.v., 180 min after injection, mean (SD)): 248.95 (170.64)
Accumulation of radioactivity in bone (in words) (normal mice, i.v.): high accumulation and retention of radioactivity in bone

tissue uptake dose at 10 min [1]: 2.09 %ID
tissue uptake dose at 1 h [1]: 0.1 %ID
tissue uptake dose at 3 h [1]: 0.01 %ID
tissue uptake dose at 10 min [2]: 11 %ID
tissue uptake dose at 1 h [2]: 11.8 %ID
tissue uptake dose at 3 h [2]: 12.2 %ID
tissue uptake dose at 10 min [3]: 0.05 %ID
tissue uptake dose at 1 h [3]: 0.01 %ID
tissue uptake dose at 3 h [3]: 0.01 %ID
tissue uptake dose at 10 min [4]: 0.79 %ID
tissue uptake dose at 1 h [4]: 0.08 %ID
tissue uptake dose at 3 h [4]: 0.05 %ID
tissue uptake dose at 10 min [5]: 13.4 %ID
tissue uptake dose at 1 h [5]: 10.6 %ID
tissue uptake dose at 3 h [5]: 6.59 %ID
tissue uptake dose at 10 min [6]: 0.42 %ID
tissue uptake dose at 1 h [6]: 0.18 %ID
tissue uptake dose at 3 h [6]: 0.25 %ID
tissue uptake dose at 10 min [7]: 0.46 %ID
tissue uptake dose at 1 h [7]: 0.12 %ID
tissue uptake dose at 3 h [7]: 0.08 %ID
tissue uptake dose at 10 min [8]: 1.65 %ID
tissue uptake dose at 1 h [8]: 0.13 %ID
tissue uptake dose at 3 h [8]: 0.04 %ID
tissue uptake dose at 10 min [9]: 0.78 %ID
tissue uptake dose at 1 h [9]: 0.19 %ID
tissue uptake dose at 3 h [9]: 0.02 %ID
tissue uptake dose at 10 min [10]: 0.68 %ID
tissue uptake dose at 1 h [10]: 0.13 %ID
tissue uptake dose at 3 h [10]: 0.06 %ID
tissue uptake dose at 10 min [11]: 0.37 %ID
tissue uptake dose at 1 h [11]: 0.22 %ID
tissue uptake dose at 3 h [11]: 0.15 %ID
tissue uptake dose at 10 min [12]: 0.37 %ID
tissue uptake dose at 1 h [12]: 0.06 %ID
tissue uptake dose at 3 h [12]: 0.03 %ID
tissue uptake dose at 10 min [13]: 0.29 %ID
tissue uptake dose at 1 h [13]: 0.19 %ID
tissue uptake dose at 3 h [13]: 0.29 %ID
Clearance from the blood (in words) (mouse, in vivo, iv): rapid clearance from the blood
Radioactivity in the kidneys (in words) (mouse, in vivo, iv): retained
SMILES: O=C(O)CC[C@@H](NC(=O)[C@@H](CCC(=O)O)NC(=O)[C@@H](CCC(=O)O)NC(=O)[C@@H](CCC(=O)O)NC(=O)[C@@H](CCC(=O)O)NC(=O)[C@@H](CCC(=O)O)NC(=O)[C@@H](CCC(=O)O)NC(=O)[C@@H](CCC(=O)O)NC(=O)[C@@H](CCC(=O)O)NC(=O)[C@@H](CCC(=O)O)NC(=O)[C@@H](CCC(=O)O)NC(=O)[C@@H](CCC(=O)O)NC(=O)[C@@H](CCC(=O)O)NC(=O)[C@@H](CCC(=O)O)NC(=O)CN1CCN(CC(=O)O)CCN(CC(=O)O)CCN(CC(=O)O)CC1)C(=O)O [^67Ga-DOTA-(D-Glu)14, metal not drawn]
Accumulation of radioactivity in bone (in words) (mouse, in vivo, iv): high accumulation and retention of radioactivity in bone
